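Dose response: 5 concentrations. Exposure: 48 h. Format: 96-well plates. Endpoint: linear interpolation; highest concentration if not reached. GI50: concentration for 50% inhibition of growth. TGI: total growth inhibition.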
Tests used:
Assay in all cases: NCI-60 cell line screen, 48 h
M14 melanoma = system: M14 melanoma
TK-10 renal = system: TK-10 renal
CCRF-CEM leukemia = system: CCRF-CEM leukemia
SNB-19 CNS = system: SNB-19 CNS
SR leukemia = system: SR leukemia
UACC-62 melanoma = system: UACC-62 melanoma
HCT-15 colon = system: HCT-15 colon
NCI/ADR-RES ovarian = system: NCI/ADR-RES ovarian
PC-3 prostate = system: PC-3 prostate
DU-145 prostate = system: DU-145 prostate

SMILES	TGI (M14 melanoma)	TGI (TK-10 renal)	TGI (CCRF-CEM leukemia)	TGI (SNB-19 CNS)	TGI (SR leukemia)	TGI (UACC-62 melanoma)	TGI (HCT-15 colon)	TGI (NCI/ADR-RES ovarian)	TGI (PC-3 prostate)	TGI (DU-145 prostate)	GI50 (CCRF-CEM leukemia)
CC(C)(C)C(=O)OCC1OC(N=[N+]=[N-])C(OC(=O)C(C)(C)C)C(OC(=O)C(C)(C)C)C1OC(=O)C(C)(C)C (stereo not given)	> 100 µM	> 100 µM	> 100 µM	> 100 µM	> 100 µM	> 100 µM	> 100 µM	–	–	–	–
Cc1ccc(N(O)C(C)(C)C)cc1	–	–	> 100 µM	> 100 µM	–	> 100 µM	> 100 µM	> 100 µM	–	–	–
CC1(C)CC2(C)CC1CC2(O)c1ccccc1 (stereo not given)	> 100 µM	> 100 µM	> 100 µM	> 100 µM	> 100 µM	> 100 µM	–	–	> 100 µM	> 100 µM	–
COC(=O)c1c(C)cccc1C1CN=NC12Cc1ccc(C)c(C)c1C2=O (stereo not given)	96.2 µM	> 100 µM	> 100 µM	> 100 µM	> 100 µM	57.9 µM	> 100 µM	> 100 µM	–	> 100 µM	–
COC(=O)C1=C(O)C(C(=O)OC)[C@]2(O)[C@@H](C(=O)OC)[C@H]1C[C@@H](c1ccccc1)[C@@H]2C(=O)OC (stereo not given in full)	24.5 µM	53.5 µM	49.3 µM	68.7 µM	24.1 µM	25.1 µM	26.9 µM	–	–	27 µM	–
CC(=O)NNc1nc(C)c(C(=O)NNC(=O)C(=O)Nc2cccc(C(C)=O)c2)s1	–	31.1 µM	67.3 µM	> 100 µM	45.8 µM	31.4 µM	52.5 µM	–	–	–	–
O=S(=O)(c1ccc(-c2nnc(-c3ccc(F)cc3)o2)cc1)c1ccc(-c2nnc(-c3ccc(F)cc3)o2)cc1	> 100 µM	–	> 100 µM	> 100 µM	–	> 100 µM	> 100 µM	> 100 µM	> 100 µM	> 100 µM	–
CC(C)OP(=O)(OC(C)C)C1=NN(c2ccc([N+](=O)[O-])cc2)C(P(=O)(OC(C)C)OC(C)C)=NN1c1ccc([N+](=O)[O-])cc1	> 100 µM	> 100 µM	> 100 µM	> 100 µM	> 100 µM	> 100 µM	> 100 µM	–	–	–	–
C[S+](C)CC1OC(n2cnc3c(N)ncnc32)C(O)C1O (stereo not given)	–	–	> 225 µM	> 225 µM	–	> 200 µM	> 225 µM	> 225 µM	–	–	–
CN(C)CCNC(=O)c1cccc2cc3cc(O)ccc3nc12	–	–	5.44 µM	3.53 µM	–	2.74 µM	6.53 µM	11.4 µM	–	–	–
COc1ccc2nc3c(c(NCCCN(C)C)c2c1)CCCC3	26.1 µM	> 100 µM	28.3 µM	48.8 µM	5.77 µM	31.2 µM	33.9 µM	–	–	–	–
Cc1ccc(-c2nnc(CCCCCCCCc3nnc(-c4ccc(C)cc4O)n3N)n2N)c(O)c1	> 100 µM	> 100 µM	–	> 100 µM	> 100 µM	> 100 µM	> 100 µM	> 100 µM	–	> 100 µM	–
CCCCCCCCCC(=O)N[C@@H](c1ccco1)[C@@H](O)C(=O)O[C@H]1C[C@@]2(O)[C@@H](OC(=O)c3ccccc3)[C@@H]3[C@]4(OC(C)=O)CO[C@@H]4C[C@H](O)[C@@]3(C)C(=O)[C@H](OC(C)=O)C(=C1C)C2(C)C	–	9.22 µM	–	> 30.5 µM	10 µM	9.53 µM	8.73 µM	20.5 µM	> 35.1 µM	–	–
Cc1ccc(Sc2ccccc2[N+](=O)[O-])cc1	> 100 µM	> 100 µM	> 100 µM	–	> 100 µM	> 100 µM	62.2 µM	–	–	–	–
O=NN(CCF)C(=O)NC1CC2CCC1C2 (stereo not given)	–	–	> 100 µM	> 100 µM	–	> 100 µM	> 100 µM	> 100 µM	–	–	–
CCOC(=O)c1cc2c(OCc3ccccc3)c(OC)cc3c2c(n1)N(c1ccc(OC)cc1)C(C)C3 (stereo not given)	> 50 µM	> 50 µM	> 50 µM	> 50 µM	> 50 µM	> 50 µM	> 50 µM	–	–	–	–
O=c1c2ccccc2nc(-c2ccccc2)n1NC(=S)Nc1ccc(Cl)cc1	> 100 µM	> 100 µM	> 100 µM	–	> 100 µM	> 100 µM	> 100 µM	–	–	–	–
CCC(COC(=O)CC[C@@H](NC(=O)C(C)NC(=O)C(C)OC1C(O)C(CO)OC(OCc2ccccc2)C1NC(C)=O)C(N)=O)NC1c2ccccc2Nc2cccc([N+](=O)[O-])c21 (stereo not given in full)	> 100 µM	> 100 µM	> 100 µM	> 100 µM	> 100 µM	> 100 µM	> 100 µM	–	–	–	–
Cc1cn(C2CC(CCCO)C(CO)O2)c(=O)[nH]c1=O (stereo not given)	> 100 µM	> 100 µM	> 100 µM	> 100 µM	> 100 µM	> 100 µM	> 100 µM	–	–	–	> 100 µM
COc1cccc(/C(Cl)=C(\C=O)c2cccc(OC)c2)c1	26.1 µM	51.2 µM	28.8 µM	38.2 µM	39.5 µM	18.8 µM	20.1 µM	–	–	–	–
Cc1nnc2n(c1=O)CCN2C	> 100 µM	> 100 µM	> 100 µM	> 100 µM	> 100 µM	> 100 µM	> 100 µM	–	> 100 µM	> 100 µM	–
